Measurements published in paper doi:10.1101/2025.08.06.669005v1 (bioRxiv, 2025).
Starred links: 1 amine or outer side, 2 acyl side, 3 side chain; linkers in the order of their positions; H or OH if unused. Positions of bridges follow the written chain, without caps; N, C: chain ends. Non-standard residues stand in square brackets, D forms with d. Residues, ends and D or L forms follow the SMILES beside them. Chains are numbered I, II in the order given. X1 = O=C(O)C[C@@H](C(=O)[*:2])N(c1ccc([N+](=O)[O-])c2nonc12)[*:1]; Nle = CCCC[C@H](N)C(=O)O; Aib = CC(C)(N)C(=O)O

Columns and labels:
[1] = system: HeLa cells; experiment: Membrane perturbation assay; type: cell-based; conditions: PI 3.5 µM, 30 min, 37 °C, CLSM, n = 37–65 cells
[2] = system: PANC-1 cells; experiment: Membrane perturbation assay; type: cell-based; conditions: PI 3.5 µM, 30 min, 37 °C, CLSM, n = 28–58 cells
[3] = system: EVs; conditions: placed in cultured media without separation steps; cited from earlier work
[4] = system: sEVs; conditions: previous data; cited from earlier work
[5] = system: cancer cells; experiment: sEV drug-loading system with a hydrophobic compound; type: cell-based; conditions: compound loaded onto sEVs; data not shown
[6] = ζ-potential measurement; type: physicochemical; conditions: non- and DiD-labeled MSC-sEVs; Zetasizer Nano ZS, 25 °C; n = 5
[7] = system: MSC-sEVs; experiment: sEV binding of 2 in solution in the presence of heparin; conditions: heparin 100 or 500 µg/mL; n = 3
[8] = system: PANC-1 cells; experiment: Cellular uptake by CLSM; type: cell-based; conditions: 2 at 1 µM alone, 37 °C, more than 1 h
[9] = system: HeLa cells; experiment: Cellular uptake by CLSM; type: cell-based; conditions: 2 at 1 µM alone, 37 °C, more than 1 h
[10] = system: sEV-mimicking liposomes (POPC:cholesterol:POPS = 75:15:10 mol%); experiment: Peptide binding to sEV-mimicking liposomes; conditions: ratio of Kd values for sEV-mimicking liposomes

CO [MeOH]
ratio of the dead cells stained by PI [1]: 96.5%
ratio of the dead cells stained by PI [2]: 97.3%

CCCC[C@H](NC(=O)[C@H](CCCCN)NC(=O)[C@H](CO)NC(=O)[C@H](CC(C)C)NC(=O)C(C)(C)NC(=O)[C@H](CC(=O)O)NC(=O)[C@@H](NC(=O)C(C)(C)NC(=O)[C@H](CCCCN)NC(=O)[C@H](CC(N)=O)NC(=O)[C@H](CC(C)C)NC(=O)[C@H](CCCC)NC(=O)[C@H](CCCCN)NC(=O)[C@H](CC(C)C)NC(=O)[C@H](CC(C)C)NC(=O)C(C)(C)NC(=O)[C@H](CCCCN)NC(=O)[C@H](CC(=O)O)Nc1ccc([N+](=O)[O-])c2nonc12)[C@@H](C)O)C(=O)NCC(=O)N[C@@H](CO)C(=O)NCC(=O)N[C@@H](CO)C(=O)N[C@@H](CCCCN)C(N)=O [Peptide 1] (HELM PEPTIDE1{[O=C(O)C[C@H](Nc1ccc([N+](=O)[O-])c2nonc12)C(=O)[*:2]].K.[Aib].L.L.K.[Nle].L.N.K.[Aib].T.D.[Aib].L.S.K.[Nle].G.S.G.S.K.[am]}$$$$V2.0)
time to selective binding to EVs [3]: ≤ 5 min
amount of peptide bound at the plateau level [4]: 1,361 peptides/vesicle

CC[C@@]1(O)C(=O)OCc2c1cc1n(c2=O)Cc2cc3ccccc3nc2-1 [camptothecin]
performance of the sEV drug-loading system [5]: did not work effectively

DKBLLKXLNKBTDBLSKX-GSGS-C-NH2 (disulfide) [2′]
change of ζ-potential of sEVs in the presence of the peptide [6]: slight increase in ζ-potential

Heparin
fluorescence intensity of NBD of 2 in the presence of MSC-sEVs in solution [7]: did not influence

I: H-[X1]K[Aib]LLK[Nle]LNK[Aib]TD[Aib]LSK[Nle]GSGSC-NH2 / II: H-[X1]K[Aib]LLK[Nle]LNK[Aib]TD[Aib]LSK[Nle]GSGSC-NH2 (disulfide I:23-II:23) [Peptide 2]
NBD signals in cells in the absence of DiD-MSC-sEVs (uptake of peptide alone) [8]: negligible
NBD signals in cells in the absence of DiD-MSC-sEVs (uptake of peptide alone) [9]: negligible
affinity relative to that of 1 [10]: 15.7 fold

biotin-DKBLLKXLNKBTDBLSKX-GSGS-C-NH2 | biotin-DKBLLKXLNKBTDBLSKX-GSGS-C-NH2 (disulfide) [Peptide 8]
ratio of the dead cells stained by PI [1]: 0.0%
ratio of the dead cells stained by PI [2]: 1.9%

biotin-IWIAQELRRIGDEFNZYYAZR-NH2 (sidechain bridge or staple) [Peptide 10]
ratio of the dead cells stained by PI [1]: 4.5%
ratio of the dead cells stained by PI [2]: 7.1%

biotin-LSQETFZ’DLWKLLZEN-NH2 (sidechain bridge or staple) [Peptide 9]
ratio of the dead cells stained by PI [1]: 6.5%
ratio of the dead cells stained by PI [2]: 3.3%
